Laboratory results reported in US6716987B1, “Derivatives of benzofuran or benzodioxazole compounds” (Kyowa Hakko Kogyo Co., Ltd., priority 1995, dated 2004).

Legend:
TNF α production = assay: Suppression effect on TNF α production in the LPS induced mouse sepsis model; format: in vivo; details: serum TNF α
Method: Lipopolysaccharide (LPS, DIFCO Laboratories) was dissolved in physiological saline to make a final concentration of 0.2 mg/ml. The resulting solution was administered intravenously to the tail of Balb/c male mice (7-week-old) (Charls River Japan Co.) at 200 μl per 20 g body weight of 5 to 6 mice/group. One hour after administration, blood was drawn from a fundus oculi vein of each mouse to obtain serum. […] The concentration of TNF a in serum was measured by enzyme-linked immunosorbent assay (ELISA method) as follows: […] anti-mouse TNF a monoclonal antibody (Pharmingen Inc.) diluted with a phosphate buffer solution (PBS) was added to a 96-well microtiter plate (Nalge Nunc International immuno-plate <MaxiSorp=) at […]; allowed to stand at 4° C. for 12 hours for coating; mixed with […] of a phosphate buffer solution containing 1% bovine serum albumin (BSA) (1% BSA-PBS); allowed to stand at room temperature for 1 hour to block the non-specific binding; washed with phosphate buffer solution; mixed with […] of the subject serum diluted two-fold with 1% BSA-PBS; and allowed to stand at room temperature for 2 hours. Furthermore, recombinant mouse TNF α (Genzyme Corp.) diluted with 1% BSA-PBS was similarly treated and used as a standard substance. These plates were washed three times with PBS (0.05% Tween-PBS) containing 0.05% polyoxyethylenesorbitan monolaurate (Tween 20, Wako Pure Chemical Industries, Ltd.), mixed with […] of biotin-labelled anti-mouse TNF α monoclonal antibody (Method A: Pharmingen Inc.; Method B: Genzyme Corp) diluted with 1% BSA-PBS to make a concentration of 1 mg/ml, allowed to stand at room temperature for 1 hour, washed three times with 0.05% Tween-PBS, mixed with […] of horseradish peroxidase avidin D (Vector Laboratories Inc.) diluted four-thousand-fold with 1% BSA-PBS, and allowed to stand at room temperature for 30 min. Finally, these plates were washed three times with 0.05% Tween-PBS, and mixed with […] of 3,3′,5,5′-tetramethylbenzidine. After color development, the reaction was stopped by adding […] of 10% sulfuric acid solution, and then, the absorbance at 450 nm was measured. The concentration of TNF α in serum was calculated from a calibration curve.
The rate of suppression of each test compound on TNF α production was obtained from the following formula:
Suppression rate=(A−B)/A,
wherein A is the TNF α concentration of the control group and B is the TNF α concentration of the experimental group.
In the above formula, the TNF α concentration of the control group is defined as the value obtained in the absence of the test compound (0.5% methyl cellulose solution alone).
Employed as the reference compounds were 7-methoxy-4-[1-oxo-2-(4-pyridyl)ethyl]-spiro[2,3-dihydrobenzofuran-2,1′-cyclopentane] hydrochloride (disclosed in Example 100 of Japanese Patent Laid-Open No. 8-836624 and hereinafter referred to as Compound RA) having the formula (RA) and 2-benzoyl-4-(3,5-dichloro-4-pyridyl)aminocarbonyl)-7-methoxybenzofuran (disclosed in Example 35 of Japanese Patent Laid-Open No. 8-534708 and hereinafter referred to as Compound RB) having the formula (RB): [drawing 660]

Sunkus murinus = assay: Effect on vomiting induction in male Sunkus murinus; format: in vivo; details: dose 10 mg/kg i.p., observed for 1 hour after administration
Method: Five to fifteen male Sunkus murinus per group weighing approximately 60 g were used for the test. According to the method of Matsumoto, et. al. [Japan J. Pharmacol., 48, 303 (1988)], Sunkus murinus were placed separately into metal wire cages (width 15 cm×length 21 cm×height 15 cm). Each sample of the test compound was suspened in a 0.5% Tween 80 physiological saline solution and administered intraperitoneally (i.p.) at a dose of 10 ml/kg. […] In the group that was administered the test-compound, the results are represented as the number of vomiting animals/the number of experimental animals. Compound RA was employed as a reference compound.

phosphodiesterase 4A = biological target: T1, phosphodiesterase 4A (Homo sapiens, UniProt P27815); assay: Recombinant human PDE4A assay; format: biochemical; details: 10^−7 M, read-out: Enzyme Inhibitory Activity (%, 10^−7 M)
T1 construct: made in house; host or cells: E. coli

[1] = system: neutrophil and eosinophil accumulation; assay: Effect on neutrophil and eosinophil accumulation in BN rats; format: in vivo, rat; details: dose of 30 mg/kg p.o.; BALF 24 hours after antigen
Method: The Howell et al's method (Pulmonary Pharmacology, 8, […] (1995)) was partly modified and used for the active sensitization and the antigen exposure.
Oval albumin (OA) (1 mg) and aluminium hydroxide (200 mg) were subcutaneously injected into male Brown-Norway rats (6 week-age, Nippon Charles River), to which were intra abdominally administered dead cells of Bordetella pertussis for the active sensitization of the rats. After 14 days, the rats were put into a plastic chamber (30×50×30 cm), and left to inspire a 1% (w/v) OA solution for 10 minutes for antigen induction. For the inspiration, used was an ultrasonic nebulizer (NE-U12, by Omron, Tokyo).
The test compound was suspended in 0.5% methyl cellulose, and orally administered (p.o.) to the rats one hour prior to the antigen challenge. The group of the rats to which 0.5% methyl cellulose was administered and which were left to inspire OA was referred to as OA Group, while the group of the rats which were left to inspire a physiological saline solution in place of OA was referred to as Saline Group.
After 24 hours from the antigen induction, bronchoalveolar lavage (BAL) was performed. […] Then, the number of all leukocytes existing in the resulting suspension was counted, using an automatic leukocyte counter (Celltac α MEK-6158, by Nippon Koden, Tokyo). […]

[2] = Method A, dose 10 mg/kg orally 90 min before LPS
[3] = Method B, dose 30 mg/kg orally 90 min before LPS

T1 sequence (P27815 224-886 limits assumed): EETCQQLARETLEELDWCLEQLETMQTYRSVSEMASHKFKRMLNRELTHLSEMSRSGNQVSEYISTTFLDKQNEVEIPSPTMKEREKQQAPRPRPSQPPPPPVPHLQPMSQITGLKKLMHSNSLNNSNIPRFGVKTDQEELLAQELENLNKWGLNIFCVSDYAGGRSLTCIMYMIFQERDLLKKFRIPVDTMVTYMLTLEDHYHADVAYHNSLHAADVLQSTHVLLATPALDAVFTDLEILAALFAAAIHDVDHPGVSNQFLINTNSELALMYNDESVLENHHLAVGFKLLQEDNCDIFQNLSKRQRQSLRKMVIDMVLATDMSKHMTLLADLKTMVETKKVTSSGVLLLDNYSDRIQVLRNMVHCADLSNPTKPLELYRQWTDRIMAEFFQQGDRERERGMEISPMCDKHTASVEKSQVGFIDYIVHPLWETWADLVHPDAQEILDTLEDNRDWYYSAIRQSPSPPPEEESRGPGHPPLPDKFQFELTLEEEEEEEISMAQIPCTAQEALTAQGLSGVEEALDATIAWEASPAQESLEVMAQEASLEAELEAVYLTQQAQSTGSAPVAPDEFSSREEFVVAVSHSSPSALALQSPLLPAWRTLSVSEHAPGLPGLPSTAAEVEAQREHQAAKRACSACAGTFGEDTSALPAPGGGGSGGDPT

Compound	Suppression rate (%) (TNF α production; [2])	Number of vomiting animals/Number of experimental animals (Sunkus murinus)	melting point	Suppression rate (%) (TNF α production; [3])	further results
7-(4-carboxy-4-pyridyl)-4-methoxy-spiro[1,3-benzodioxole-2,1=-cyclopentane] [Compound 203]	100%	1/5			
COc1ccc(C(=O)Cc2c(Cl)cccc2Cl)c2cc(C(=O)Nc3cccc(F)c3)oc12 [Compound 161, 4-[2-(2,6-Dichlorophenyl)-1-oxoethyl]-2-[(3-fluorophenyl)aminocarbonyl]-7-methoxybenzofuran]			251 to 252 °C		inhibition at 0.1 µM (phosphodiesterase 4A): 87%
COc1ccc(C(=O)Cc2c(Cl)cccc2Cl)c2cc(C(=O)c3ccccc3)oc12 [Compound 163, 2-Benzoyl-4-[2-(2,6-dichlorophenyl)-1-oxoethyl]-7-methoxybenzofuran]			223 to 224 °C		inhibition at 0.1 µM (phosphodiesterase 4A): 96%
COc1ccc(C(=O)Cc2c(Cl)cncc2Cl)c2c1OCCCO2 [Compound 189, 6-[2-(3,5-dichloro-4-pyridyl)-1-oxoethyl]-3,4-dihydro-9-methoxy-2H-1,5-benzodioxepin]			150 to 151 °C		inhibition at 0.1 µM (phosphodiesterase 4A): 84%
COc1ccc(/C=C/c2c(Cl)cncc2Cl)c2c1OCCCO2 [Compound 191, (E)-6-[2-(3,5-dichloro-4-pyridyl)ethenyl]-3,4-dihydro-9-methoxy-2H-1,5-benzodioxepin]			118 to 120 °C		inhibition at 0.1 µM (phosphodiesterase 4A): 84%
COc1ccc(C(=O)Cc2c(Cl)cncc2Cl)c2c1OCCCCO2 [Compound 194, 7-[2-(3,5-dichloro-4-pyridyl)-1-oxoethyl]-10-methoxy-2,3,4,5-tetrahydro-1,6-benzodioxocin]			142 to 143 °C		inhibition at 0.1 µM (phosphodiesterase 4A): 92%
COc1ccc(C(=O)Nc2c(Cl)cncc2Cl)c2cc(C(=O)N3CCN(C)CC3)oc12 [Compound 201, 4-(3,5-dichloro-4-pyridyl)aminocarbonyl-7-methoxy-2-(4-methyl-1-piperazinyl)carbonylbenzofuran]	70%	0/5			
COc1ccc(C(=O)Nc2c(Cl)cncc2Cl)c2cc(C(=O)N3CCN(CCO)CC3)oc12 [Compound 202, 4-(3,5-dichloro-4-pyridyl)aminocarbonyl-7-methoxy-2-[4-(2-hydroxyethyl)-1-piperazinyl]carbonylbenzofuran]	92%	0/5			
COc1ccc(-c2ccc(C(=O)O)cc2)c2c1OC(C)(C)O2 [Compound 204, 7-(4-carboxyphenyl)-2,2-dimethyl-4-methoxy-1,3-benzodioxole]	79%	2/5	237 to 239 °C		
COc1ccc(-c2cnccc2C)c2c1OC1(CCCC1)O2 [Compound 205, 4-methoxy-7-(4-methyl-3-pyridyl)-spiro[1,3-benzodioxole-2,1′-cyclopentane]]	79%	0/5			
COc1ccc(C(=O)Cc2c(Cl)cncc2Cl)c2cc(C(=O)N3CCN(C)CC3)oc12 [Compound 206]		0/5		65%	
COc1ccc(C(=O)Cc2c(Cl)cncc2Cl)c2cc(C(=O)N3CCN(CCO)CC3)oc12 [Compound 207, 4-[2-(3,5-Dichloro-4-pyridyl)-1-oxoethyl]-2-[4-(2-hydroxyethyl)-1-piperazinylcarbonyl]-7-methoxybenzofuran]		0/5		65%	
COc1ccc(C(=O)Nc2c(Cl)cncc2Cl)c2cc(C(=O)CCCN3CCOCC3)oc12 [Compound 213, N-(3,5-Dichloropyridin-4-yl)-2-(4-morpholino)butyryl-7methoxybenzofuran-4-carboxamide]		0/5		65%	
COc1ccc(C(=O)Nc2c(Cl)cncc2Cl)c2cc(C(=O)CCCN3CCN(C)CC3)oc12 [Compound 214, N-(3,5-dichloropyridin-4-yl)-2-[4-(4-methyl-1-piperazinyl)]-butyryl-7-methoxybenzofuran-4-carboxamide]		3/5		65%	
COc1ccc(C(=O)Cc2c(Cl)cncc2Cl)c2cc(C(=O)NCCN3CCOCC3)oc12 [Compound 216, N-(2-morpholinoethyl)-4-[2-(3,5-dichloropyridin-4-yl)-1-oxo]ethyl-7-methoxybenzofuran-2-carboxamide]	75%	0/5			inhibiting activity against eosinophils [1]: 100%; inhibiting activity against neutrophils [1]: 92%
COc1ccc(C(=O)Cc2ccncc2)c2c1OC1(CCCC1)C2.Cl [RA, 7-methoxy-4-[1-oxo-2-(4-pyridyl)ethyl]-spiro[2,3-dihydrobenzofuran-2,1′-cyclopentane] hydrochloride, reference compound]	81%	5/5		81%	
COc1ccc(C(=O)Nc2c(Cl)cncc2Cl)c2cc(C(=O)c3ccccc3)oc12 [RB, reference compound]	48%	0/5		30%	
